Data on eleven cell lines can be found in the supplement of paper PMC10307832.

What all share (assay): relative viability (nuclei count vs DMSO), 5 days (fraction); higher = more cells survive
Compound in test [1]: C1=CC(=CC=C1NC(=S)NNC2=C(C=C(C=C2[N+](=O)[O-])C(F)(F)F)[N+](=O)[O-])F [Kobe2602] + Cc1nc(NC(=O)N2CCC[C@H]2C(N)=O)sc1-c1ccnc(C(C)(C)C(F)(F)F)c1 [Alpelisib] (partner 2 µM)
The method, boiled down:
(§1)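 The day after seeding in 1536-well plates, lung cancer cell lines were treated by pin tool with a single drug, or with a fixed anchor-drug dose together with five library-drug doses (not always all listed) in √10 steps. After 5 days, a combined fix-and-stain solution (final 0.05% Triton X-100, 1% formaldehyde, 1 ug/ml Hoechst) was added. Nuclei counted on 4× images gave relative viability as treated counts over vehicle counts, reported as the median of duplicate plates.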

Compound in test [2]: C1=CC(=CC=C1NC(=S)NNC2=C(C=C(C=C2[N+](=O)[O-])C(F)(F)F)[N+](=O)[O-])F [Kobe2602] + O=C(c1cc(Cc2n[nH]c(=O)c3ccccc23)ccc1F)N1CCN(C(=O)C2CC2)CC1 [Olaparib] (partner 8 µM)
The method in brief: as §1

Compound in test [3]: COc1cc2nccc(Oc3ccc(NC(=O)C4(C(=O)Nc5ccc(F)cc5)CC4)cc3)c2cc1OC [Cabozantinib] + CC(=O)Nc1cccc(-n2c(=O)n(C3CC3)c(=O)c3c(Nc4ccc(I)cc4F)n(C)c(=O)c(C)c32)c1 [Trametinib] (partner 0.02 µM)
The method, boiled down:
as §1

Compound in test [4]: COc1cc2nccc(Oc3ccc(NC(=O)C4(C(=O)Nc5ccc(F)cc5)CC4)cc3)c2cc1OC [Cabozantinib] + CS(=O)(=O)CCNCc1ccc(-c2ccc3ncnc(Nc4ccc(OCc5cccc(F)c5)c(Cl)c4)c3c2)o1 [Lapatinib] (partner 2 µM)
The method in brief:
as §1

LOU-NH91: the relative viability came to 0.767 in test [1] (first compound 0.2 µM); 0.752 in test [1] (first compound 0.6325 µM); 0.701 in test [1] (first compound 2 µM); 0.722 in test [1] (first compound 6.325 µM); 0.778 in test [1] (first compound 20 µM); 0.9 in test [2] (first compound 0.2 µM). The relative viability worked out at 0.922 in test [2] (first compound 0.6325 µM); 0.875 in test [2] (first compound 2 µM); 0.917 in test [2] (first compound 6.325 µM); 0.819 in test [2] (first compound 20 µM); 0.778 in test [3] (first compound 0.02 µM); 0.866 in test [3] (first compound 0.06325 µM). In addition, the relative viability in test [3] (first compound 0.2 µM) stood at 0.692; in test [3] (first compound 0.6325 µM), 0.785; in test [3] (first compound 2 µM), 0.748; in test [4] (first compound 0.02 µM), 0.687; in test [4] (first compound 0.06325 µM), 0.776; in test [4] (first compound 0.2 µM), 0.781. Besides, the relative viability is 0.711 in test [4] (first compound 0.6325 µM) and 0.712 in test [4] (first compound 2 µM).
Turning to LU99A, the relative viability stood at 0.515 in test [1] (first compound 0.2 µM); 0.525 in test [1] (first compound 0.6325 µM); 0.415 in test [1] (first compound 2 µM); 0.542 in test [1] (first compound 6.325 µM); 0.607 in test [1] (first compound 20 µM); 0.255 in test [2] (first compound 0.2 µM). Further, the relative viability was 0.275 in test [2] (first compound 0.6325 µM); 0.259 in test [2] (first compound 2 µM); 0.262 in test [2] (first compound 6.325 µM); 0.28 in test [2] (first compound 20 µM); 0.475 in test [3] (first compound 0.02 µM); 0.56 in test [3] (first compound 0.06325 µM). In addition, the relative viability is 0.535 in test [3] (first compound 0.2 µM); 0.573 in test [3] (first compound 0.6325 µM); 0.41 in test [3] (first compound 2 µM); 0.896 in test [4] (first compound 0.02 µM); 1.07 in test [4] (first compound 0.06325 µM); 0.985 in test [4] (first compound 0.2 µM). The relative viability in test [4] (first compound 0.6325 µM) came out at 0.996; in test [4] (first compound 2 µM), 0.931.
NCI-H441: the relative viability in test [1] (first compound 0.2 µM) was 0.725; in test [1] (first compound 0.6325 µM), 0.864; in test [1] (first compound 2 µM), 0.682; in test [1] (first compound 6.325 µM), 0.704; in test [1] (first compound 20 µM), 0.727; in test [2] (first compound 0.2 µM) it was 0.581. Further, the relative viability in test [2] (first compound 0.6325 µM) amounted to 0.716; in test [2] (first compound 2 µM), 0.66; in test [2] (first compound 6.325 µM) it was 0.511; in test [2] (first compound 20 µM) it was 0.545; in test [3] (first compound 0.02 µM), 0.339; in test [3] (first compound 0.06325 µM) it was 0.502. In addition, the relative viability in test [3] (first compound 0.2 µM) came to 0.421; in test [3] (first compound 0.6325 µM), 0.441; in test [3] (first compound 2 µM), 0.361.
For the cell line NCI-H522, the relative viability in test [2] (first compound 0.2 µM) is 0.66; in test [2] (first compound 0.6325 µM), 0.662; in test [2] (first compound 2 µM) it was 0.646; in test [2] (first compound 6.325 µM), 0.641; in test [2] (first compound 20 µM), 0.598; in test [3] (first compound 0.02 µM), 0.823. The relative viability came out at 0.819 in test [3] (first compound 0.06325 µM), 0.78 in test [3] (first compound 0.2 µM), 0.861 in test [3] (first compound 0.6325 µM) and 0.69 in test [3] (first compound 2 µM).
As for NCI-H1299, the relative viability in test [1] (first compound 0.2 µM) was determined as 1.02; in test [1] (first compound 0.6325 µM), 1.05; in test [1] (first compound 2 µM), 1.08; in test [1] (first compound 6.325 µM) it was 1.13; in test [1] (first compound 20 µM), 1.05; in test [2] (first compound 0.2 µM), 0.996. Moreover, the relative viability was 1.02 in test [2] (first compound 0.6325 µM); 0.949 in test [2] (first compound 2 µM); 1.02 in test [2] (first compound 6.325 µM); 0.985 in test [2] (first compound 20 µM); 0.95 in test [4] (first compound 0.02 µM); 1.04 in test [4] (first compound 0.06325 µM). Further, the relative viability was 0.936 in test [4] (first compound 0.2 µM), 1.03 in test [4] (first compound 0.6325 µM) and 1.04 in test [4] (first compound 2 µM).
For the cell line NCI-H1563, the relative viability in test [1] (first compound 0.2 µM) was 0.939; in test [1] (first compound 0.6325 µM) it was 0.917; in test [1] (first compound 2 µM), 0.871; in test [1] (first compound 6.325 µM), 0.839; in test [1] (first compound 20 µM) it was 1.08; in test [4] (first compound 0.02 µM), 0.946. Besides, the relative viability in test [4] (first compound 0.06325 µM) came to 0.966; in test [4] (first compound 0.2 µM), 1.04; in test [4] (first compound 0.6325 µM) it was 0.844; in test [4] (first compound 2 µM), 1.21.
As for NCI-H1648, the relative viability was determined as 0.62 in test [2] (first compound 0.2 µM); 0.929 in test [2] (first compound 0.6325 µM); 0.493 in test [2] (first compound 2 µM); 0.772 in test [2] (first compound 6.325 µM); 0.872 in test [2] (first compound 20 µM); 0.501 in test [3] (first compound 0.02 µM). Moreover, the relative viability in test [3] (first compound 0.06325 µM) turned out to be 0.448; in test [3] (first compound 0.6325 µM), 0.672; in test [3] (first compound 2 µM), 0.419.
Turning to NCI-H1650, the relative viability in test [2] (first compound 0.2 µM) was 0.844; in test [2] (first compound 0.6325 µM), 0.891; in test [2] (first compound 2 µM), 0.819; in test [2] (first compound 6.325 µM), 0.868; in test [2] (first compound 20 µM), 0.8; in test [3] (first compound 0.02 µM) it was 0.656. The relative viability is 0.615 in test [3] (first compound 0.06325 µM); 0.391 in test [3] (first compound 0.2 µM); 0.643 in test [3] (first compound 0.6325 µM); 0.691 in test [3] (first compound 2 µM); 0.788 in test [4] (first compound 0.02 µM); 0.916 in test [4] (first compound 0.06325 µM). Further, the relative viability in test [4] (first compound 0.2 µM) stood at 0.904; in test [4] (first compound 0.6325 µM), 0.708; in test [4] (first compound 2 µM), 0.568.
For the cell line NCI-H1703, the relative viability in test [1] (first compound 0.2 µM) was determined as 0.313; in test [1] (first compound 0.6325 µM) it was 0.347; in test [1] (first compound 2 µM), 0.333; in test [1] (first compound 6.325 µM), 0.392; in test [1] (first compound 20 µM), 0.306; in test [2] (first compound 0.2 µM) it was 0.454. In addition, the relative viability came out at 0.364 in test [2] (first compound 0.6325 µM); 0.4 in test [2] (first compound 2 µM); 0.483 in test [2] (first compound 6.325 µM); 0.431 in test [2] (first compound 20 µM); 0.587 in test [4] (first compound 0.06325 µM); 0.337 in test [4] (first compound 0.2 µM). For the same cell line, the relative viability in test [4] (first compound 0.6325 µM) worked out at 0.282; in test [4] (first compound 2 µM), 0.231.
For the cell line NCI-H2342, the relative viability in test [2] (first compound 0.2 µM) amounted to 0.415; in test [2] (first compound 0.6325 µM) it was 0.406; in test [2] (first compound 2 µM) it was 0.435; in test [2] (first compound 6.325 µM) it was 0.493; in test [2] (first compound 20 µM), 0.434; in test [3] (first compound 0.02 µM) it was 0.872. Further, the relative viability amounted to 0.949 in test [3] (first compound 0.06325 µM), 0.878 in test [3] (first compound 0.2 µM), 0.738 in test [3] (first compound 0.6325 µM) and 0.535 in test [3] (first compound 2 µM).
With SW 900, the relative viability in test [2] (first compound 0.2 µM) was found to be 0.914; in test [2] (first compound 0.6325 µM) it was 0.981; in test [2] (first compound 2 µM) it was 0.679; in test [2] (first compound 6.325 µM), 0.969; in test [2] (first compound 20 µM), 0.976; in test [3] (first compound 0.02 µM) it was 0.978. The relative viability in test [3] (first compound 0.06325 µM) was found to be 0.841; in test [3] (first compound 0.2 µM), 0.611; in test [3] (first compound 0.6325 µM) it was 0.955; in test [3] (first compound 2 µM), 0.852.
